Converted amounts (≈) assume the structure as drawn. “Also recorded” adds a separate entry of the source.
Columns and labels:
[1] = Physical stability and conversion of solid forms (polymorph screen)
[2] = Solubility of Form A in water; assay type: physicochemical
[3] = Solubility of Form A in organic solvents; assay type: physicochemical
[4] = Hygroscopicity by DVS (Dynamic Vapor Sorption); assay type: physicochemical

O=C1Nc2ccccc2C(c2ccccc2)=N[C@@H]1Nc1nnc(-c2ncc(C(F)(F)F)cc2N2CCOCC2)o1 [Form D]
conversion to another solid form [1]: converts to Form F upon air drying

O=C1Nc2ccccc2C(c2ccccc2)=N[C@@H]1Nc1nnc(-c2ncc(C(F)(F)F)cc2N2CCOCC2)o1 [Form A]
solubility ([2]; aqueous buffer, from pH 4-8): ~2 µg/mL (≈ 3.64 µM)
solubility ([2]; simulated gastric fluid, at pH 1): 13.3 µg/mL (≈ 24.2 µM)
solubility in organic solvents ([3]; alcohols, ethyl acetate, acetonitrile): relatively poor solubility
solubility in organic solvents ([3]; dichloromethane, 1,4-dioxane, tetrahydrofuran, acetone): highly soluble
hygroscopicity [4]: not hygroscopic; also recorded: Anhydrous/unsolvated, non-hygroscopic
weight gain during adsorption ([4]; DVS, adsorption to 95% RH): 0.1 wt %
moisture loss on desorption ([4]; DVS, desorption to 5% RH): losing all of the gained moisture

O=C1Nc2ccccc2C(c2ccccc2)=N[C@@H]1Nc1nnc(-c2ncc(C(F)(F)F)cc2N2CCOCC2)o1 [Form F]
conversion to another solid form [1]: Converts to G in ethyl acetate

O=C1Nc2ccccc2C(c2ccccc2)=N[C@@H]1Nc1nnc(-c2ncc(C(F)(F)F)cc2N2CCOCC2)o1 [Form G]
physical stability of solid form [1]: physically stable at ambient temperature

O=C1Nc2ccccc2C(c2ccccc2)=N[C@@H]1Nc1nnc(-c2ncc(C(F)(F)F)cc2N2CCOCC2)o1 [Material C]
conversion to another solid form [1]: desolvate readily to Form A; also recorded: Likely converts to A on drying

O=C1Nc2ccccc2C(c2ccccc2)=N[C@@H]1Nc1nnc(-c2ncc(C(F)(F)F)cc2N2CCOCC2)o1 [Amorphous]
hygroscopicity [4]: Appeared non-hygroscopic
conversion to another solid form [1]: Crystallizes to A

Reference: patent publication US20250145603A1, “CRYSTAL FORMS OF AN ANTI-RSV AGENT” (Enanta Pharmaceuticals, Inc., priority 2023, published 2025)
